Assay results as given in patent US8148422B2, “Sulfonamides as TRPM8 modulators” (Janssen Pharmaceutica, NV, priority 2008, dated 2012).

Molecular target: T1, canine TRPM8 (Canis lupus familiaris, UniProt Q1A7N1)
T1 construct: expressed in transfected cells
Experiment: In vitro canine TRPM8 functional assay (Ca2+-sensitive fluorescent dye, FLIPR or FDSS, icilin challenge)
Type: cell-based
Conditions: HEK293 cells stably expressing canine TRPM8; for inhibition at 0.2 µM: 0.2 μM compound, icilin challenge; for IC50: icilin at approx. 80% maximal response, eight-point dose-response, single determinations unless otherwise noted, read-out: IC50
Method: The functional activity of compounds of the formula (I) was determined by measuring changes in intracellular calcium concentration using a Ca^2+-sensitive fluorescent dye. The changes in fluorescent signal were monitored by a fluorescence plate reader, either a FLIPR™ (Molecular Devices) or FDSS (Hamamatsu).
At 24 hrs prior to assay, HEK293 cells stably expressing canine TRPM8 were seeded in culture medium in black wall, clear-base poly-D-lysine coated 384-well plates (BD Biosciences, NJ, USA) and grown overnight in 5% CO2 at 37° C. On assay day, growth media was removed and cells were loaded with Calcium 3 Dye (Molecular Devices) for 35 min at 37° C., under 5% CO2 and then for 25 min at room temperature and atmosphere. Subsequently, cells were tested for agonist-induced increases in intracellular Ca^2+ levels using FLIPR™ or FDSS. Cells were challenged with a compound of the Formula (I) (at varying concentrations) and intracellular Ca^2+ was measured for 5 min prior to the addition of icilin to all wells to achieve a final concentration that produces approximately an 80% maximal response. EC50 or IC50 values for compounds of the present invention were determined from eight-point dose-response studies. Curves were generated using the average of quadruplicate wells for each data point.

T1 sequence (Q1A7N1 1-1104): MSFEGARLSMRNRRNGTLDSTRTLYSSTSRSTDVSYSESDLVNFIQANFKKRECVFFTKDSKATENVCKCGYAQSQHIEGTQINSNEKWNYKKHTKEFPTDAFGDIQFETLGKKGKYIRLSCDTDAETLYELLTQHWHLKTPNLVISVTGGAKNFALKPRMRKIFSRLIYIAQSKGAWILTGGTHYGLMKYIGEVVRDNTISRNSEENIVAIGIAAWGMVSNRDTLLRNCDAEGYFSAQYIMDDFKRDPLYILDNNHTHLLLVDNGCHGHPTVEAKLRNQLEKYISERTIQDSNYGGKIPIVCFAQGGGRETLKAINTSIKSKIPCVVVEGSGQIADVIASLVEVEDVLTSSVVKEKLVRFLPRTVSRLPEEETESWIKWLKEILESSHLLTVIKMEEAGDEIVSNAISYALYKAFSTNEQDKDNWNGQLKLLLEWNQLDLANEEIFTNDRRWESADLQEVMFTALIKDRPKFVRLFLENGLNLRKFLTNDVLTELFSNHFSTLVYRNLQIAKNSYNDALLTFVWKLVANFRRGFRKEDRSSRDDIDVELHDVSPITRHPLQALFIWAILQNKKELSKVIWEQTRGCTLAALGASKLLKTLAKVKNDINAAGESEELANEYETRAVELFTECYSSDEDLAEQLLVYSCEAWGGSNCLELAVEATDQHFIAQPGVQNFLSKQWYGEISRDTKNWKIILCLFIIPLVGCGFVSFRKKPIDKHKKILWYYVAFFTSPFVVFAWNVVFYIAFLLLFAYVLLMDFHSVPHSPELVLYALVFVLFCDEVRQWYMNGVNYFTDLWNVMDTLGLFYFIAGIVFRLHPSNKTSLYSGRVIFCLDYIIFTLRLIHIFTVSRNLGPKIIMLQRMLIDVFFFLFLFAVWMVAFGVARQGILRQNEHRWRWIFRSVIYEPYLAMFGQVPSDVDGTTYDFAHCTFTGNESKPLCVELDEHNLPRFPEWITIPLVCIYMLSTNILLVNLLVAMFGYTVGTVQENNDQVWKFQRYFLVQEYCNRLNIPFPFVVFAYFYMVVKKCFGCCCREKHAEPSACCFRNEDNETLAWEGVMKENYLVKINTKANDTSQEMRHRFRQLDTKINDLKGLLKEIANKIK

Row | inhibition at 0.2 µM [%] | IC50 [nM] | Compound
1 | 91 | 59 | CC(=O)N(CCS(=O)(=O)N(CCCCC(F)(F)F)c1sc2ccccc2c1C)CC(C)C [Cpd 88, N-(3-Methylbenzo[b]thiophen-2-yl)-N-(5,5,5-trifluoro-n-pent-1-yl)-2-(N-acetyl-isobutylamino)ethylsulfonamide]
2 | 97 | 49 | Cc1c(N(Cc2ccc(F)cc2)S(=O)(=O)CCN(C)Cc2ccccc2)sc2ccccc12 [Cpd 77, N-(3-Methylbenzo[b]thiophen-2-yl)-N-(4-fluoro-benzyl)-2-(benzyl-methylamino)ethylsulfonamide]
3 | 77 | 81 | CCOC(=O)C1CCN(CCS(=O)(=O)N(CCCCC(F)(F)F)c2sc3ccccc3c2C)CC1 [Cpd 85, N-(3-Methylbenzo[b]thiophen-2-yl)-N-(5,5,5-trifluoropent-1-yl)-2-(4-carboethoxypiperidin-1-yl)ethylsulfonamide]
4 | 94 | 50 | Cc1c(N(Cc2ccc(OC(F)(F)F)cc2)S(=O)(=O)CCN(C)C(C)C)sc2ccccc12 [Cpd 8, N-(3-Methylbenzo[b]thiophen-2-yl)-N-(4-trifluoromethoxy-benzyl)-2-(methyl-isopropylamino)ethylsulfonamide]
5 | 99 | 27 | Cc1c(N(Cc2ccc(OC(F)(F)F)cc2)S(=O)(=O)CCN2CCNC(=O)CC2)sc2ccccc12 [Cpd 31, N-(3-Methylbenzo[b]thiophen-2-yl)-N-(4-trifluoromethoxy-benzyl)-2-(5-oxohomopiperazin-1-yl)ethylsulfonamide]
6 | 100 | 16 | CCCN(CCS(=O)(=O)N(Cc1ccc(OC(F)(F)F)cc1)c1sc2ccccc2c1C)CC(C)C [Cpd 82, N-(3-Methylbenzo[b]thiophen-2-yl)-N-(4-trifluoromethoxy-benzyl)-2-(isobutyl-propylamino)ethylsulfonamide]
7 | 102 | 9 | O=S(=O)(CCN1CCCC(F)(F)C1)N(Cc1ccc(OC(F)(F)F)cc1)c1sc2ccccc2c1Br [Cpd 67, N-(3-Bromobenzo[b]thiophen-2-yl)-N-(4-trifluoromethoxy-benzyl)-2-(3,3-difluoropiperidin-1-yl)ethylsulfonamide]

Further lines, the molecule ahead of its results:

Row | Compound | inhibition at 0.2 µM [%] | IC50 [nM]
8 | Cc1c(N(Cc2ccc(OC(F)(F)F)cc2)S(=O)(=O)CCN(C)CCc2ccccc2)sc2ccccc12 [Cpd 17, N-(3-Methylbenzo[b]thiophen-2-yl)-N-(4-trifluoromethoxy-benzyl)-2-(methyl-2-phenylethylamino)ethylsulfonamide] | 98 | 22
9 | Cc1c(N(Cc2ccc(OC(F)(F)F)cc2)S(=O)(=O)CCN2CC(F)(F)C2)sc2ccccc12 [Cpd 46, N-(3-Methylbenzo[b]thiophen-2-yl)-N-(4-trifluoromethoxy-benzyl)-2-(3,3-ditluoroazetidin-1-yl)ethylsulfonamide] | 101 | 4
10 | Cc1c(N(Cc2ccc(OC(F)(F)F)cc2)S(=O)(=O)CCN2[C@H](C)CCC[C@@H]2C)sc2ccccc12 [Cpd 22, N-(3-Methylbenzo[b]thiophen-2-yl)-N-(4-trifluoromethoxy-benzyl)-2-(cis-2,6-dimethylpiperidin-1-yl)ethylsulfonamide] | 99 | 13
11 | Cc1c(N(Cc2ccc(OC(F)(F)F)cc2)S(=O)(=O)CCN2CCCC(F)(F)C2)sc2ccccc12 [Cpd 43, N-(3-Methylbenzo[b]thiophen-2-yl)-N-(4-trifluoromethoxy-benzyl)-2-(3,3-difluoropiperidin-1-yl)ethylsulfonamide] | 101 | 5
12 | Cc1c(N(Cc2ccc(OC(F)(F)F)cc2)S(=O)(=O)CCN2CCN(c3ccccc3)CC2)sc2ccccc12 [Cpd 30, N-(3-Methylbenzo[b]thiophen-2-yl)-N-(4-trifluoromethoxy-benzyl)-2-(4-phenylpiperazin-1-yl)ethylsulfonamide] | 96 | 33
13 | CCCCN(CCCC)CCS(=O)(=O)N(Cc1ccc(OC(F)(F)F)cc1)c1sc2ccccc2c1Br [Cpd 62, N-(3-Bromobenzo[b]thiophen-2-yl)-N-(4-trifluoromethoxy-benzyl)-2-(di-n-butylamino)ethylsulfonamide] | 96 | 38
14 | O=S(=O)(CCN1CCOCC1)N(Cc1ccc(OC(F)(F)F)cc1)c1ccc2ccccc2c1 [Cpd 51, N-(Naphth-2-yl)-N-(4-trifluoromethoxy-benzyl)-2-(morpholin-4-yl)ethylsulfonamide] | 87 | 28
15 | Cc1c(N(Cc2ccc(OC(F)(F)F)cc2)S(=O)(=O)CCN2CCN(C)CC2)sc2ccccc12 [Cpd 28, N-(3-Methylbenzo[b]thiophen-2-yl)-N-(4-trifluoromethoxy-benzyl)-2-(4-methylpiperazin-1-yl)ethylsulfonamide] | 25 | –
16 | Cc1c(N(Cc2ccc(OC(F)(F)F)cc2)S(=O)(=O)CCNCCC(F)(F)F)sc2ccccc12 [Cpd 13, N-(3-Methylbenzo[b]thiophen-2-yl)-N-(4-trifluoromethoxy-benzyl)-2-(3,3,3-trifluoropropylamino)ethylsulfonamide] | 72 | 74
17 | CCCCN(C)CCS(=O)(=O)N(Cc1ccc(OC(F)(F)F)cc1)c1sc2ccccc2c1C [Cpd 12, N-(3-Methylbenzo[b]thiophen-2-yl)-N-(4-trifluoromethoxy-benzyl)-2-(methyl-butylamino)ethylsulfonamide] | 96 | 43
18 | O=S(=O)(CCN1CCCCC1)N(Cc1ccc(OC(F)(F)F)cc1)c1cc2ccccc2s1 [Cpd 2, N-(Benzo[b]thiophen-2-yl)-N-(4-trifluoromethoxy-benzyl)-2-(piperidin-1-yl)ethylsulfonamide] | 92 | 33
19 | O=S(=O)(CCN1CCc2ccccc2C1)N(Cc1ccc(OC(F)(F)F)cc1)c1ccc2ccccc2c1 [Cpd 54, N-(Naphth-2-yl)-N-(4-trifluoromethoxy-benzyl)-2-(1,2,3,4-tetrahydroisoquinolin-2-yl)ethylsulfonamide] | 86 | 51
20 | Cc1c(N(Cc2ccc(F)cc2)S(=O)(=O)CCN(CC(C)C)CC(C)C)sc2ccccc12 [Cpd 76, N-(3-Methylbenzo[b]thiophen-2-yl)-N-(4-fluoro-benzyl)-2-(di-iso-butylamino)ethylsulfonamide] | 99 | 25
21 | CCCCN(CCCC)CCS(=O)(=O)N(Cc1ccc(OC(F)(F)F)cc1)c1ccc2ccccc2c1 [Cpd 56, N-(Naphth-2-yl)-N-(4-trifluoromethoxy-benzyl)-2-(dibutylamino)ethylsulfonamide] | 47 | –
22 | Cc1c(N(Cc2ccc(F)c(C(F)(F)F)c2)S(=O)(=O)CCN2CCCC(F)(F)C2)sc2ccccc12 [Cpd 70, N-(3-Methylbenzo[b]thiophen-2-yl)-N-(4-fluoro-3-trifluoromethyl-benzyl)-2-(3,3-difluoropiperidin-1-yl)ethylsulfonamide] | 100 | 4
23 | Cc1c(N(Cc2ccc(OC(F)(F)F)cc2)S(=O)(=O)CCN2CCC2)sc2ccccc12 [Cpd 39, N-(3-Methylbenzo[b]thiophen-2-yl)-N-(4-trifluoromethoxy-benzyl)-2-(azetidin-1-yl)ethylsulfonamide] | 80 | 113
